Test results taken from patent US20060089371A1, “Phenyl or heteroaryl amino alkane derivatives as ip receptor antagonist” (Bayer HealthCare AG, priority 2002, published 2006).
Structures can show the parent of a compound that is named as a salt.

Key:
IP receptor = biological target: T1, IP receptor (Homo sapiens, UniProt P43119); test: IP receptor binding/cAMP in HEL cells ([3H]-iloprost binding, Assay 1; iloprost-induced cAMP production, Assay 2); conditions: compounds of about 40 to 90% purity, read-out: In vitro activity grade (IC50 class)
T1 construct: one million cells in 160 μl aliquot of cell suspension were put in a well of 96 well plate; host or cells: HEL 92.1.7 human erythroleukemia cells (whole cells)
T1 sequence (P43119 whole entry): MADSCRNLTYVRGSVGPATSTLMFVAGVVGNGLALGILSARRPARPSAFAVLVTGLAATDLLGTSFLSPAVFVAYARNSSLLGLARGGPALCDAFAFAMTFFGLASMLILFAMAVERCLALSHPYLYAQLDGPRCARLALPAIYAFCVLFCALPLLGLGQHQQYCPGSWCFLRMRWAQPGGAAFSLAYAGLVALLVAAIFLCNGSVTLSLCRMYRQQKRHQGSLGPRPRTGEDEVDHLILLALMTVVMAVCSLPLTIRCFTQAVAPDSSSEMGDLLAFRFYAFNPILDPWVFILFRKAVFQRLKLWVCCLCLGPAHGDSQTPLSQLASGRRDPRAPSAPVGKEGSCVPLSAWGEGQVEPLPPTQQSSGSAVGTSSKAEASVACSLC
Description: [Measurement of the [^3H]-iloprost Binding to HEL Cells] (Assay 1)
A human erythloleukemia cell line, HEL 92.1.7, was purchased from American Type Culture Correction and maintained in RPMI-1640 medium (Gibco BRL) supplemented with 10% fetal calf serum (FCS), 2 mM glutamine, 4.5 g/L glucose, 10 mM Hepes, 1 mM sodium pyruvate, 100 U/ml penicillin, and 100 μg/ml streptomycin in a humidified 5% CO2 atmosphere at 37° C. Cells were collected with centrifugation and washed with binding assay buffer (BAB: 50 mM Tris-HCl, 5 mM MgCl2 (pH 7.5)). Cells were suspended at the density of 6.25×10^6 cells/ml in BAB, and one million cells in 160 μl aliquot of cell suspension were put in a well of 96 well plate (Falcon). Then, 20 μl of compound solution, 100 μM of iloprost (for non-specific binding), or buffer alone (total binding), diluted with 1% DMSO in BAB was added. Finally, another 20 μl containing [^3H]-iloprost (0.02 μCi, 0.5-1 pmol) in BAB was added and incubated at room temperature for 30 min with a gentle shaking. Cell suspension was then transferred to a well of MultiScreen plate with GF/C glass filters (Millipore) to harvest cells. Cells were washed twice with 200 μl of ice-cold BAB and the plate was kept at 55° C. for 30 min to dry filters. The filter in the well was punched out to a counting tube and 2 ml of Ultima Gold XR (Packard) was added. [^3H]-radio activity in the filter was measured by a liquid scintillation counter (Beckman, USA).
[Iloprost-Induced cAMP Production Assay in HEL Cells] (Assay 2)
HEL cells were collected with centrifugation and washed with cAMP assay buffer (CAB: Hank's balanced salt solution, 17 mM Hepes, 0.1% bovine serum albumin, 1 mM IBMX, 0.4% DMSO, and 1 mM L-ascorbic acid sodium salt (pH 7.4)). Cells were suspended at the density of 2.5×10^5 cells/ml in CAB, and twenty thousand cells in 80 μl aliquot of cell suspension were put in a well of 96 well plate (Falcon). Then, 10 μl of compound solution diluted with 1% DMSO in CAB or buffer alone was added. The plate was incubated at 37° C. for 30 min. Then, another 10 μl containing 100 nM iloprost in CAB or buffer alone was added and further incubated at 37° C. for 30 min. cAMP content in the well was measured by a cAMP ELISA kit (Applied Biosystems, USA).
The data corresponds to the compounds as yielded by solid phase synthesis and thus to levels of purity of about 40 to 90%. For practical reasons, the compounds are grouped in three classes of activity as follows: IC50=A<0.1 μM≦B<1 μM≦C

Row | Structure (SMILES) | IC50 (IP receptor) | melting point
1 | O=C(O)[C@@H](Cc1ccccc1)Nc1cc(-c2ccc(OCC3CC3)cc2)ncn1 [Example 1-2, N-{6-[4-(Cyclopropylmethoxy)phenyl]pyrimidin-4-yl}-D-phenylalanine] | < 100 nM | 180 to 183 °C (dec.)
2 | O=C(O)[C@@H](Cc1ccccn1)Nc1cc(-c2ccc(OCc3ccccc3)cc2)ncn1 [Example 1-4, N-{6-[4-(benzyloxy)phenyl]pyrimidin-4-yl}-3-pyridin-2-yl-D-alanine] | < 100 nM | 142 °C
3 | O=C(Nc1ccccc1)c1ccc(-c2cc(NC(Cc3ccccc3)C(=O)O)ncn2)cc1 (stereo not shown) [Example 1-5] | 100 to 1000 nM | 228 to 231 °C (dec.)
4 | O=C(O)C(Cc1ccccc1)Nc1cc(-c2ccc(CCCc3ccccc3)cc2)ncn1 (stereo not shown) [Example 1-6] | < 100 nM | 112 to 114 °C
5 | O=C(O)C(Cc1ccccc1)Nc1cc(-c2ccc(OCc3ccccc3)cc2)ncn1 (stereo not shown) [Example 1-7] | < 100 nM | 175 to 178 °C
6 | O=C(O)C(Cc1ccccc1)Nc1cc(-c2ccc(Oc3ccccc3)cc2)ncn1 (stereo not shown) [Example 1-8] | < 100 nM | 214 to 217 °C (dec.)
7 | O=C(O)C(Cc1ccccc1)Nc1ncnc(-c2ccc(OCc3ccccc3)cc2)c1[N+](=O)[O-] (stereo not shown) [Example 1-9] | > 1000 nM | < 80 °C
8 | O=C(O)C(Cc1ccccc1)Nc1cc(-c2ccc(-c3ccccc3)cc2)ncn1 (stereo not shown) [Example 1-10] | < 100 nM | 146 to 148 °C (dec.)
9 | CCC(C)C(Nc1cc(-c2ccc(OCc3ccccc3)cc2)ncn1)C(=O)O (stereo not shown) [Example 1-11] | 100 to 1000 nM | 56 °C
10 | O=C(O)C(Cc1ccc(F)cc1)Nc1cc(-c2ccc(OCc3ccccc3)cc2)ncn1 (stereo not shown) [Example 1-12] | < 100 nM | 186 °C
11 | CCCCC(Nc1cc(-c2ccc(OCc3ccccc3)cc2)ncn1)C(=O)O (stereo not shown) [Example 1-13] | < 100 nM | 187 °C
12 | O=C(O)C(CCc1ccccc1)Nc1cc(-c2ccc(OCc3ccccc3)cc2)ncn1 (stereo not shown) [Example 1-14] | < 100 nM | 226 to 228 °C
13 | CC(C)CC(Nc1cc(-c2ccc(OCc3ccccc3)cc2)ncn1)C(=O)O (stereo not shown) [Example 1-15] | 100 to 1000 nM | 244 to 246 °C
14 | CC(C)C(Nc1cc(-c2ccc(OCc3ccccc3)cc2)ncn1)C(=O)O (stereo not shown) [Example 1-16] | 100 to 1000 nM | 235 to 237 °C
15 | CSCCC(Nc1cc(-c2ccc(OCc3ccccc3)cc2)ncn1)C(=O)O (stereo not shown) [Example 1-17] | < 100 nM | 210 °C
16 | CC(Nc1cc(-c2ccc(OCc3ccccc3)cc2)ncn1)C(=O)O (stereo not shown) [Example 1-18] | 100 to 1000 nM | 158 °C
17 | CC(Cc1ccccc1)(Nc1cc(-c2ccc(OCc3ccccc3)cc2)ncn1)C(=O)O (stereo not shown) [Example 1-19] | < 100 nM | 187 °C
18 | O=C(O)C(Cc1ccccc1)Nc1ncnc(-c2ccc(OCc3ccccc3)cc2)c1F (stereo not shown) [Example 1-20] | < 100 nM | 145 to 146 °C
19 | O=C(O)C(Cc1ccc(Cl)cc1)Nc1cc(-c2ccc(OCc3ccccc3)cc2)ncn1 (stereo not shown) [Example 1-22] | < 100 nM | 150 to 153 °C (dec.)
20 | C#CCC(Nc1cc(-c2ccc(OCc3ccccc3)cc2)ncn1)C(=O)O (stereo not shown) [Example 1-23] | < 100 nM | 155 °C
21 | CS(=O)(=O)CCC(Nc1cc(-c2ccc(OCc3ccccc3)cc2)ncn1)C(=O)O (stereo not shown) [Example 1-24] | 100 to 1000 nM | 138 °C
22 | O=C(O)C(Cc1ccc([N+](=O)[O-])cc1)Nc1cc(-c2ccc(OCc3ccccc3)cc2)ncn1 (stereo not shown) [Example 1-25] | < 100 nM | 211 °C
23 | O=C(O)C(Cc1ccc(O)cc1)Nc1cc(-c2ccc(OCc3ccccc3)cc2)ncn1 (stereo not shown) [Example 1-26] | < 100 nM | 233 to 236 °C
24 | CC(O)C(Nc1cc(-c2ccc(OCc3ccccc3)cc2)ncn1)C(=O)O (stereo not shown) [Example 1-27] | 100 to 1000 nM | 211 to 214 °C

Row | Structure (SMILES) | IC50 (IP receptor) | melting point
25 | C=CCC(Nc1cc(-c2ccc(OCc3ccccc3)cc2)ncn1)C(=O)O (stereo not shown) [Example 1-28] | < 100 nM | 135 to 137 °C
26 | Nc1ccc(CC(Nc2cc(-c3ccc(OCc4ccccc4)cc3)ncn2)C(=O)O)cc1 (stereo not shown) [Example 1-29] | < 100 nM | 145 °C
27 | O=C(O)C(Cc1ccccc1)Nc1ncnc(-c2ccc(OCc3ccccc3)cc2)n1 (stereo not shown) [Example 1-30] | < 100 nM | 186 to 188 °C
28 | O=C(O)C(Cc1ccccn1)Nc1cc(-c2ccc(OCc3ccccc3)cc2)ncn1 (stereo not shown) [Example 1-31] | < 100 nM | 218 to 223 °C
29 | O=C(O)C(CC(F)(F)F)Nc1cc(-c2ccc(OCc3ccccc3)cc2)ncn1 (stereo not shown) [Example 1-32] | < 100 nM | 156 to 158 °C
30 | O=C(O)C(COCc1ccccc1)Nc1cc(-c2ccc(OCc3ccccc3)cc2)ncn1 (stereo not shown) [Example 1-33] | < 100 nM | 132 to 135 °C
31 | COCC(Nc1cc(-c2ccc(OCc3ccccc3)cc2)ncn1)C(=O)O (stereo not shown) [Example 1-34] | < 100 nM | 115 to 120 °C
32 | CC(Cc1cccc(O)c1)(Nc1cc(-c2ccc(OCc3ccccc3)cc2)ncn1)C(=O)O (stereo not shown) [Example 1-35] | > 1000 nM | 265 to 267 °C
33 | O=C(O)C(Cc1ccccc1)Nc1ncnc(-c2ccc(OCC3CC3)cc2)c1F (stereo not shown) [Example 1-36] | < 100 nM | 170 to 173 °C
34 | O=C(O)C(Cc1c[nH]cn1)Nc1cc(-c2ccc(OCc3ccccc3)cc2)ncn1 (stereo not shown) [Example 1-39] | 100 to 1000 nM | 183 to 188 °C
35 | O=C(O)C(Cc1ccccc1)Nc1cc(-c2ccc(Oc3ccc(C(F)(F)F)cn3)cc2)ncn1 (stereo not shown) [Example 12-5] | 100 to 1000 nM | 
36 | O=C(O)C(Cc1ccccc1)Nc1cc(-c2ccc(Oc3ccc4ccccc4n3)cc2)ncn1 (stereo not shown) [Example 12-6] | 100 to 1000 nM | 
37 | O=C(O)C(Cc1ccccc1)Nc1cc(-c2ccc(NCc3ccccc3)cc2)ncn1 (stereo not shown) [Example 13-1, N-{6-[4-Benzylamino)phenyl]pyrimidin-4-yl}phenylalanine hydrochloride] | < 100 nM | 
38 | O=C(O)[C@H](Cc1ccccc1)Nc1cc(-c2ccc(NS(=O)(=O)c3ccccc3)cc2)ncn1 [Example 15-1, N-(6-{4-[(Phenylsulfonyl)amino]phenyl}pyrimidin-4-yl)phenylalanine] | > 1000 nM | 
39 | O=C(O)[C@H](Cc1ccccc1)Nc1cc(-c2ccc(NCC3CC3)cc2)ncn1 [Example 16-1, N-(6-{4-[(Cyclopropylmethyl)amino]phenyl}pyrimidin-4-yl)phenylalanine] | 100 to 1000 nM | 
40 | O=C(O)[C@H](Cc1ccccc1)Nc1cc(-c2ccc(Cc3ccccc3)cc2)ncn1 [Example 18-1, N-[6-(4-Benzylphenyl)pyrimidin-4-yl]phenylalanine] |  | 116 to 118 °C
41 | O=C(O)C(Cc1ccccc1)Nc1cc(-c2ccc(CNc3ccccc3)cc2)ncn1 (stereo not shown) [Example 19-1, N-{6-[4-(Anilinomethyl)phenyl]pyrimidinyl}phenylalanine] | < 100 nM | 
42 | O=C(O)C(Cc1ccccc1)Nc1cc(-c2ccc(CN3Cc4ccccc4C3)cc2)ncn1 (stereo not shown) [Example 19-3] | 100 to 1000 nM | 
43 | O=C(O)[C@H](Cc1ccccc1)Nc1cc(-c2ccc(COc3ccccc3)cc2)ncn1 [Example 20-1, N-{6-[4-(Phenoxymethyl)phenyl]pyrimidin-4-yl}phenylalanine] | < 100 nM | 
44 | c1ccc(COc2ccc(-c3cc(NC(Cc4ccccn4)c4nnn[nH]4)ncn3)cc2)cc1 (stereo not shown) [Example 27-2] | 100 to 1000 nM | 
45 | O=C(O)C(Cc1ccccc1)Nc1cc(-c2ccc(OCc3ccccc3)cc2)on1 (stereo not shown) [Example 28-2] | < 100 nM | 
46 | Cn1nc(-c2ccc(OCc3ccccc3)cc2)cc1NC(Cc1ccccc1)C(=O)O (stereo not shown) [Example 28-3] | > 1000 nM | 
47 | O=C(O)C(Cc1ccccc1)Nc1nc(-c2ccc(OCc3ccccc3)cc2)cs1 (stereo not shown) [Example 28-4] | > 1000 nM | 
48 | O=C(O)[C@H](Cc1ccccc1)Nc1nccc(-c2ccc(OCc3ccccc3)cc2)n1 [Example 29-1, N-{4-[4-(Benzyloxy)phenyl]pyrimidin-2-yl}phenylalanine] | < 100 nM | 
